Molecular target: Avi-humanTEAD4 217-434 / Cy5 labeled humanYAP 60-100 (Homo sapiens (Human), UniProt Q15561)
Assay: TR-FRET YAP-TEAD4 in-vitro biochemical assay
Format: binding
Conditions: 1 nM Avi-humanTEAD4 217-434, 20 nM Cy5-humanYAP 60-100, 1 h room temperature
Procedure: N-terminus Cy5 labeled humanYAP^60-100 (20 nM) was then added to this preparation. Compounds were dissolved at 10 mM in 100% DMSO and serial dilutions were made in 100% DMSO. The diluted compound solutions were incubated in white 384-well plates (Greiner Bio-One) for 1 h at room temperature with the above described mix. The final DMSO concentration present in the assay was 1%. […] The IC50 values were estimated by fitting the data by nonlinear fit regression (GraphPad Prism).

Sequence of Avi-humanTEAD4 217-434 / Cy5 labeled humanYAP 60-100 (Q15561 217-434): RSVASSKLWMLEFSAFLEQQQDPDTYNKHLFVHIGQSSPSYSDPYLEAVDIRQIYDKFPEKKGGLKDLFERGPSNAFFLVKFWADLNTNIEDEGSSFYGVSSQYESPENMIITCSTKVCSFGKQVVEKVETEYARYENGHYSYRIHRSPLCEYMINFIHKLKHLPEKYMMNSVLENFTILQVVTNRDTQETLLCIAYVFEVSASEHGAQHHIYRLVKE

IC50	Compound
2 nM	COc1ncc(C(N)=O)c(-c2c(Cl)c(F)cc3c2C[C@@](CN[C@H]2CC[C@@](C)(O)CC2)(c2ccccc2)O3)c1F (atropisomer, axis not shown) [Example 66b, 4-((2S,4S)-5-chloro-6-fluoro-2-((((cis)-4-hydroxy-4-methylcyclohexyl)amino)methyl)-2-phenyl-2,3-dihydrobenzofuran-4-yl)-5-fluoro-6-methoxynicotinamide]
4 nM	C[C@@H]1C[C@H](NC[C@@]2(c3ccccc3)Cc3c(cc(F)c(Cl)c3-c3c(C(N)=O)ccc(OCCO)c3F)O2)C[C@H](C)O1 (atropisomer, axis not shown) [Example 65a, 2-((2S,4S)-5-chloro-2-((((2R,4r,6S)-2,6-dimethyltetrahydro-2H-pyran-4-yl)amino)methyl)-6-fluoro-2-phenyl-2,3-dihydrobenzofuran-4-yl)-3-fluoro-4-(2-hydroxyethoxy)benzamide]
11 nM	CNC(=O)c1cnc(OCC(=O)O)c(F)c1-c1c(Cl)c(F)cc2c1C[C@](c1ccccc1)([C@@H]1CCCN1)O2 [Example 156, 2-((4-((2S,4S)-5-Chloro-6-fluoro-2-phenyl-2-((S)-pyrrolidin-2-yl)-2,3-dihydrobenzofuran-4-yl)-3-fluoro-5-(methylcarbamoyl)pyridin-2-yl)oxy)acetic acid]
7 nM	COc1ccc(C(N)=O)c(-c2c(Cl)ccc3c2[C@H](O)[C@@](CN[C@H]2CC[C@@H](O)CC2)(c2ccccn2)O3)c1F (relative stereo) [Example 95b, 2-((2R,3S,4S)-5-chloro-3-hydroxy-2-((((cis)-4-hydroxycyclohexyl)amino)methyl)-2-(pyridin-2-yl)-2,3-dihydrobenzofuran-4-yl)-3-fluoro-4-methoxybenzamide]
3 nM	CO[C@H]1c2c(cc(F)c(Cl)c2-c2c(C(N)=O)ccc(OC(F)F)c2F)O[C@]1(CN[C@H]1CC[C@H](O)CC1)c1ccccc1 (relative stereo) [Example 102a, 2-((2S,3S,4S)-5-Chloro-6-fluoro-2-((((trans)-4-hydroxycyclohexyl)amino)methyl)-3-methoxy-2-phenyl-2,3-dihydrobenzofuran-4-yl)-4-(difluoromethoxy)-3-fluorobenzamide]
11 nM	NC(=O)c1ccc(OC(F)F)c(F)c1-c1c(Cl)c(F)cc2c1C[C@@](CN[C@H]1CC[C@H](n3cnnn3)CC1)(c1ccccc1)O2 (atropisomer, axis not shown) [Example 79, 2-((2S,4S)-2-((((trans)-4-(1H-tetrazol-1-yl)cyclohexyl)amino)methyl)-5-chloro-6-fluoro-2-phenyl-2,3-dihydrobenzofuran-4-yl)-4-(difluoromethoxy)-3-fluorobenzamide]
13 nM	CC(=O)N1CCO[C@@H](COc2ccc(C(N)=O)c(-c3c(Cl)ccc4c3C[C@@](CN)(c3ccccc3)O4)c2F)C1 (atropisomer, axis not shown) [Example 17, 4-(((R)-4-acetylmorpholin-2-yl)methoxy)-2-((2S,4S)-2-(aminomethyl)-5-chloro-2-phenyl-2,3-dihydrobenzofuran-4-yl)-3-fluorobenzamide]
2080 nM	COc1ccc(C(N)=O)c(-c2c(Cl)ccc3c2OC(CN)(c2ccccc2)C3)c1F (single isomer, unassigned) [Example 132, 2-(2-(Aminomethyl)-6-chloro-2-phenyl-2,3-dihydrobenzofuran-7-yl)-3-fluoro-4-methoxybenzamide]
5 nM	CNC[C@@]1(c2ccccc2)Cc2c(cc(F)c(Cl)c2-c2c(C(N)=O)cnc(OCCO)c2F)O1 (atropisomer, axis not shown) [Example 49, 4-((2S,4S)-5-Chloro-6-fluoro-2-((methylamino)methyl)-2-phenyl-2,3-dihydrobenzofuran-4-yl)-5-fluoro-6-(2-hydroxyethoxy)nicotinamide]
4 nM	NC[C@@]1(c2ccccc2)Cc2c(ccc(Cl)c2-c2c(C(N)=O)ccc(Cl)c2F)O1 (atropisomer, axis not shown) [Example 8, 2-((2S,4S)-2-(aminomethyl)-5-chloro-2-phenyl-2,3-dihydrobenzofuran-4-yl)-4-chloro-3-fluorobenzamide]
1 nM	C[C@]1(O)CC[C@@H](NC[C@@]2(c3ccccc3)Cc3c(cc(F)c(Cl)c3-c3c(C(N)=O)ccc(OCc4ncccn4)c3F)O2)CC1 (atropisomer, axis not shown) [Example 71b, 2-((2S,4S)-5-chloro-6-fluoro-2-((((cis)-4-hydroxy-4-methylcyclohexyl)amino)methyl)-2-phenyl-2,3-dihydrobenzofuran-4-yl)-3-fluoro-4-(pyrimidin-2-ylmethoxy)benzamide]
2 nM	C[C@]1(O)CC[C@@H](NC[C@@]2(c3ccccc3)Cc3c(cc(F)c(Cl)c3-c3c(C(N)=O)ccc(OC[C@H]4CCCO4)c3F)O2)CC1 (atropisomer, axis not shown) [Example 67a, 2-((2S,4S)-5-chloro-6-fluoro-2-((((cis)-4-hydroxy-4-methylcyclohexyl)amino)methyl)-2-phenyl-2,3-dihydrobenzofuran-4-yl)-3-fluoro-4-(((R)-tetrahydrofuran-2-yl)methoxy)benzamide]
5 nM	NC(=O)c1ccc(OC(F)F)c(F)c1-c1c(Cl)c(F)cc2c1C[C@@](CNC1CCC3(CCC(=O)N3)CC1)(c1ccccc1)O2 (single isomer, unassigned) [Example 59b]
6 nM	Cn1nccc1NC(=O)c1ccc(F)c(F)c1-c1c(Cl)ccc2c1C[C@@](CN)(c1ccccc1)O2 (atropisomer, axis not shown) [Example 24, 2-((2S,4S)-2-(aminomethyl)-5-chloro-2-phenyl-2,3-dihydrobenzofuran-4-yl)-3,4-difluoro-N-(1-methyl-1H-pyrazol-5-yl)benzamide]
8 nM	COc1ccc(C(N)=O)c(-c2c(Cl)ccc3c2[C@H](O)[C@@](CN[C@H]2CC[C@H](O)CC2)(c2ccccn2)O3)c1F (relative stereo) [Example 95a, 2-((2R,3S,4S)-5-Chloro-3-hydroxy-2-((((trans)-4-hydroxycyclohexyl)amino)methyl)-2-(pyridin-2-yl)-2,3-dihydrobenzofuran-4-yl)-3-fluoro-4-methoxybenzamide]
797 nM	N#Cc1ccc2c(c1-c1ccccc1)C[C@@](CN[C@H]1CC[C@H](O)CC1)(c1ccccc1)O2 [Example 130, (S)-2-((((trans)-4-Hydroxycyclohexyl)amino)methyl)-2,4-diphenyl-2,3-dihydrobenzofuran-5-carbonitrile]
> 100000 nM	NC[C@@]1(c2ccccc2)Cc2c(cc(F)c(Cl)c2-c2c(F)cccc2C(N)=O)O1 [Example 32b, 2-((2S,4R)-2-(aminomethyl)-5-chloro-6-fluoro-2-phenyl-2,3-dihydrobenzofuran-4-yl)-3-fluorobenzamide]
16 nM	NCCOc1cccc(F)c1-c1c(Cl)ccc2c1C[C@@](CN)(c1ccccc1)O2 [Example 3a, 2-(2-((2S,4S)-2-(Aminomethyl)-5-chloro-2-phenyl-2,3-dihydrobenzofuran-4-yl)-3-fluorophenoxy)ethanamine]
130 nM	COc1ccc(C(N)=O)c(-c2c(Cl)c(F)cc3c2C[C@](c2ccccc2)(C2COCCN2)O3)c1F (single isomer, unassigned) [Example 163]
6 nM	COC(=O)[C@H]1CC[C@H](NC[C@@]2(c3ccccc3)Cc3c(ccc(Cl)c3-c3c(C(N)=O)ccc(F)c3F)O2)CC1 (relative stereo) [Example 137b, methyl (trans)-4-((((2S,4S)-4-(6-carbamoyl-2,3-difluorophenyl)-5-chloro-2-phenyl-2,3-dihydrobenzofuran-2-yl)methyl)amino)cyclohexane-1-carboxylate]
20 nM	CC(=O)N1CCC(NC[C@@]2(c3ccccc3)Cc3c(cc(F)c(Cl)c3-c3c(C(N)=O)ccc(OC(F)F)c3F)O2)CC1 (atropisomer, axis not shown) [Example 70, 2-((2S,4S)-2-(((1-acetylpiperidin-4-yl)amino)methyl)-5-chloro-6-fluoro-2-phenyl-2,3-dihydrobenzofuran-4-yl)-4-(difluoromethoxy)-3-fluorobenzamide]
4 nM	NC[C@@]1(c2ccccc2)Cc2c(ccc(Cl)c2-c2c(C(N)=O)ccc(F)c2F)O1 (atropisomer, axis not shown) [Example 9, 2-((2S,4S)-2-(aminomethyl)-5-chloro-2-phenyl-2,3-dihydrobenzofuran-4-yl)-3,4-difluorobenzamide]
2 nM	C[C@H]1c2c(cc(F)c(Cl)c2-c2c(C(N)=O)ccc(OC(F)F)c2F)O[C@]1(CN[C@H]1CC[C@H](O)CC1)c1ccccc1 (atropisomer, axis not shown) [Example 115a, 2-((2S,3S,4S)-5-chloro-6-fluoro-2-((((trans)-4-hydroxycyclohexyl)amino)methyl)-3-methyl-2-phenyl-2,3-dihydrobenzofuran-4-yl)-4-(difluoromethoxy)-3-fluorobenzamide]
1 nM	CNC[C@]1(c2ccccn2)Oc2cc(F)c(Cl)c(-c3c(C(N)=O)ccc(OCCO)c3F)c2[C@@H]1C (atropisomer, axis not shown) [Example 112, 2-((2R,3S,4S)-5-chloro-6-fluoro-3-methyl-2-((methylamino)methyl)-2-(pyridin-2-yl)-2,3-dihydrobenzofuran-4-yl)-3-fluoro-4-(2-hydroxyethoxy)benzamide]
4 nM	NC(=O)c1ccc(OC(F)F)c(F)c1-c1c(Cl)c(F)cc2c1C[C@@](CNC1CC3(CC(O)C3)C1)(c1ccccc1)O2 (stereo partly drawn) [Example 85a, 2-((2S,4S)-5-Chloro-6-fluoro-2-(((6-hydroxyspiro[3.3]heptan-2-yl)amino)methyl)-2-phenyl-2,3-dihydrobenzofuran-4-yl)-4-(difluoromethoxy)-3-fluorobenzamide]

— patent publication US12083101B2, “Biaryl derivatives as YAP/TAZ-TEAD protein-protein interaction inhibitors” (Novartis AG, priority 2020, dated 2024)
